The values that follow come from PubChem BioAssay (NCI).

Holding throughout (experiment): inhibition of tumour cell growth, NCI panel, 48 h
For assay [1], the system named is NCI-H460 lung.
Assay [2] relates to NCI-H226 lung.
Assay [3] deals with ACHN renal.
Assay [4] relates to UACC-257 melanoma.
In assay [5] the test system is COLO 205 colon.
The test system of assay [6] is OVCAR-4 ovarian.
The test system of assay [7] is HOP-92 NSCLC.
In assay [8] the test system is MCF7 breast.
Assay [9] concerns MDA-MB-435.
In assay [10] the test system is NCI/ADR-RES ovarian.

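48-hour exposure; five concentrations; linearly interpolated endpoints. GI50 marks 50% less growth. TGI: total growth inhibition.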 Some results are limits rather than exact numbers.

Consider `COCCOCOC(CCCCO)c1cc(C)c(O[Si](C)(C)C(C)(C)C)c(C)c1` (stereo not drawn), for which the TGI was found to be 20.2 µM in assay [1]; 10.3 µM in assay [2]; 21.6 µM in assay [3]; 15.7 µM in assay [4]; 22.3 µM in assay [5].
As for `CCCC/C=C/C=C/C=C/CCCCCCCC(=O)OCC(COC(=O)CCCCCCC/C=C/C1C=CC(CCCC)C(C(=O)O)C1C(=O)O)OC(=O)CCCCCCC/C=C/C=C/C=C/CCCC` (stereo not drawn) (tested in a mixture with another compound), the TGI in assay [1] is more than 100 µM; in assay [2], 35.8 µM; in assay [6] it was 34.7 µM; in assay [3] it was 33.2 µM; in assay [4], 34.9 µM; in [5] it was 29.3 µM. In addition, the TGI in assay [7] turned out to be 48.1 µM.
For `CN(C)C=Nc1nc(=O)n(C2CCC(CO)O2)cc1F` (stereo not drawn), the TGI in assay [1], in assay [2], in [6], in assay [3], in assay [4] and in [5] was more than 100 µM in each case. For the same compound, in [7], the TGI was more than 100 µM.
`COc1ccc(/C=C/COC(C)=O)cc1OC`: the TGI in assay [2], in assay [6], in assay [3], in assay [4], in assay [5] and in assay [7] was more than 100 µM throughout.
With `Cn1cc(-c2cc3c(N4CCN(c5ncc([C@@](C)(N)c6ccc(F)cc6)cn5)CC4)ncnn3c2)cn1`, the GI50 is 2.56 µM in assay [8]; 4.41 µM in assay [1]; 2.45 µM in assay [6]; 3.26 µM in [3]; 5 µM in [4]; 3.56 µM in [9]. Besides, the TGI in [8], in assay [1], in assay [6], in assay [3], in assay [4] and in [9] was more than 100 µM in each case.
For the compound `S=P1(Oc2ccccc2)NNP2(=NP(N3CC3)(N3CC3)=NP(N3CC3)(N3CC3)=N2)NN1` (stereo not drawn), the TGI in assay [1], in assay [2], in assay [6], in [3], in assay [4] and in [5] was more than 100 µM in each case.
As to `COc1ccc2c(c1)[n+]([O-])c(C(N)=O)c(N)[n+]2[O-]`, the TGI is more than 100 µM in assay [1]; more than 100 µM in assay [2]; more than 100 µM in assay [6]; more than 100 µM in [3]; 94.6 µM in [4]; 46.2 µM in assay [5]. This compound returned a TGI in assay [7] of more than 100 µM.
On to `N#CCCC[Si]12OCCN(CCO1)CCO2`, for which the TGI in [1], in assay [2], in assay [3], in [4], in assay [5] and in assay [7] was more than 100 µM in each case.
For the compound `CC(=O)[O-].CC(=O)[O-].O=C(N/N=C/c1cc(Cl)cc(Cl)c1O)c1ccncc1.[Cu+2]`, the TGI in [1], in [2], in assay [3], in assay [4], in [5] and in assay [7] was more than 100 µM in each case. Also, the GI50 in [7] is more than 100 µM.
Take `Cc1ccc(S(=O)(=O)N2CCC2c2ccccc2)cc1` (stereo not drawn): the TGI in assay [1], in assay [2], in [6], in assay [3], in assay [4] and in assay [5] was more than 100 µM each time. This compound also showed a TGI in assay [7] of 78.8 µM.
For `N#CC(C(=O)CCC(=O)Nc1ccc(Cl)c(Cl)c1)c1ccccc1` (stereo not drawn), the TGI in [2], in assay [6], in assay [3], in [4] and in [7] was more than 100 µM throughout.
Take `O=C1C(C(Nc2ccccc2)c2ccccc2)=C([O-])c2ccccc21.O=C1C(C(Nc2ccccc2)c2ccccc2)=C([O-])c2ccccc21.[Cu+2]` (stereo not drawn): the GI50 in assay [1] was 40 µM; in assay [3], 86.2 µM; in [4], more than 100 µM; in [5], 32.1 µM; in [7], 40.9 µM. Moreover, the TGI in assay [1], in assay [3], in assay [4], in [5] and in assay [7] was more than 100 µM throughout.
As for `O=S1C(=c2ccc(=C3Sc4ccccc4S3)cc2)Sc2ccccc21` (stereo not drawn), the TGI in [1] is more than 54.8 µM; in assay [2], 34 µM; in [6], more than 100 µM; in [3], 37.6 µM; in [4], more than 100 µM; in [5], more than 100 µM. The compound further gave a TGI in assay [7] of more than 100 µM.
Consider `O=C(/C=C/c1c(O)ccc2ccccc12)c1ccc([N+](=O)[O-])cc1`, for which the TGI is more than 100 µM in assay [1]; more than 100 µM in assay [2]; 36 µM in assay [6]; 54 µM in assay [3]; 74 µM in [4]; more than 72.5 µM in assay [5]. The compound further showed a TGI in assay [7] of 30.9 µM.
Turning to `O=c1[nH]c(-c2ccccc2)nc2cc(Cl)ccc12`, the TGI in assay [1], in assay [2], in [6], in [3] and in [4] was more than 100 µM each time.
Take `COc1c(CC(C)=O)ccc2c1C(=O)c1ccc(C=O)c(OC(C)=O)c1C2=O`: the TGI in [1] was 63.2 µM; in assay [2], 36.2 µM; in assay [6], 30.4 µM; in assay [3], 51.3 µM; in assay [4] it was 28.3 µM; in assay [5] it was 31.6 µM. In addition, in assay [7], the TGI was determined as 44.1 µM.
Turning to `CCC(C)SC1SCC2C(=O)N(C)C3(CC3C)C(=O)OCC(NC(=O)c3nc4ccccc4cc3O)C(=O)NC(C)C(=O)N(C)C1C(=O)N(C)C1(CC1C)C(=O)OCC(NC(=O)c1nc3ccccc3cc1O)C(=O)NC(C)C(=O)N2C` (stereo not drawn), the TGI in assay [1] came to 0.0262 µM; in assay [2], 0.000892 µM; in assay [6], 0.0182 µM; in [3] it was 0.221 µM; in assay [4] it was 0.000219 µM; in assay [5], 0.000194 µM. Moreover, the TGI in assay [9] stood at 0.00019 µM; in [7] it was 0.000585 µM; in assay [10], 6.15 µM. Also, the GI50 in assay [6] was 0.000187 µM; in [3], 0.000296 µM.
Turning to `CCOC(=O)/C(=C/c1ccc(OC)cc1)N(CC)CC`, the TGI in assay [1], in [2], in assay [6], in assay [3], in assay [4] and in [5] was more than 100 µM each time. For the same compound, the TGI in [7] was more than 100 µM.
As for `CN(C)C(=S)/N=c1\ssc(=S)n1C1CCCCC1`, the TGI is more than 100 µM in [1]; more than 100 µM in [2]; more than 100 µM in assay [6]; more than 100 µM in assay [3]; 64.9 µM in [4]; 96.6 µM in assay [7].
For `CN(C)CC1CCCC/C1=N/O` (stereo not drawn), the TGI in [1], in [2], in assay [6], in [3], in assay [4] and in assay [5] was more than 100 µM each time. Also, the TGI in assay [7] was more than 100 µM.
For the compound `O=C(Nc1nc(=S)[nH][nH]1)C(=O)C(C(=O)c1ccc2ccccc2c1)C1OC(=O)c2ccccc21` (stereo not drawn), the TGI in assay [1] was more than 100 µM; in [2], 19.8 µM; in assay [6] it was 58.2 µM; in [3], more than 100 µM; in assay [4] it was 76.5 µM; in assay [5] it was 34.5 µM. In assay [7], this compound showed a TGI of 73.7 µM.
Take `O=C(O)CSc1n[nH]c(-c2ccccc2O)n1`: the TGI in [1], in [2], in assay [6], in assay [3], in assay [4] and in [7] was more than 100 µM in each case.
As to `O=c1c2cccnc2ncn1CCN1CCCCC1`, the TGI in [1], in assay [2], in [6], in [3], in [5] and in assay [7] was more than 100 µM in each case.
As for `C[C@@]1(O)CC[C@]2(C)C3CCCC3[C@H]12` (stereo partly drawn), the TGI in assay [1], in assay [2], in [6], in assay [3], in [4] and in assay [5] was more than 100 µM throughout. Further, the TGI in assay [7] was more than 100 µM.
Regarding `C=C1C(=O)O[C@H]2[C@H]1CC/C(CNC(=O)c1cc3ccccc3[nH]1)=C\CC[C@@]1(C)O[C@@H]21`, the GI50 was 4.09 µM in assay [1]; 2.58 µM in [2]; 1.73 µM in [6]; 1.26 µM in assay [3]; 1.16 µM in assay [5]; 1.58 µM in assay [9]. Also, the GI50 is 1.57 µM in assay [7] and 3.08 µM in [10]. Moreover, the TGI in [1] stood at 17.3 µM; in [2], 10.7 µM; in assay [6], 5.53 µM; in assay [3], 3.07 µM; in [5] it was 2.6 µM; in [9], 4.63 µM. Moreover, the TGI turned out to be 3.46 µM in assay [7] and 12.3 µM in assay [10].
Consider `CCOC(=O)n1cc(C2=C(c3ccc(OC)c(OC)c3)COC2=O)c2ccccc21`, for which the GI50 in assay [8] is 0.0336 µM; in [1] it was 0.122 µM; in [2], 0.0548 µM; in [6], 2.36 µM; in assay [3], 0.0615 µM; in assay [4], 16.1 µM. Also, the figures for the GI50 in assay [5], in [7] and in assay [10] were 0.0522 µM, 0.161 µM and 0.0415 µM, respectively. Further, the TGI is more than 100 µM in assay [8]; 18.3 µM in [1]; more than 100 µM in assay [2]; more than 100 µM in assay [6]; more than 73.1 µM in assay [3]; more than 100 µM in assay [4]. In addition, the TGI in assay [5] was 0.94 µM; in [7], more than 52.8 µM; in assay [10] it was more than 100 µM.
On to `Cc1[cH-]c(=O)n(-c2ccccc2)n1.[Au+].[Au].c1ccc([PH+](c2ccccc2)c2ccccc2)cc1.c1ccc([PH+](c2ccccc2)c2ccccc2)cc1`, for which the GI50 in assay [1] is 14.4 µM; in assay [2] it was 26.7 µM; in assay [6], 32.2 µM; in [3] it was 22.3 µM; in assay [4] it was 25.4 µM; in [5], 25.3 µM. The GI50 in assay [7] was 2.79 µM. For the same compound, the TGI in assay [1] is 37.7 µM; in assay [2], 77.8 µM; in assay [6], more than 100 µM; in assay [3] it was 58.6 µM; in assay [4] it was 91.3 µM; in assay [5], 60.6 µM. In assay [7], this compound came in with a TGI of 7.77 µM.
Regarding `COc1ccc(C(c2cc(OC)c(OC)c(OC)c2)n2cncn2)cc1O` (stereo not drawn), the GI50 is 0.347 µM in assay [8]; 0.414 µM in [1]; 1.43 µM in assay [2]; 3.02 µM in [6]; 0.653 µM in assay [3]; more than 100 µM in [4]. In addition, the results for the GI50 in [5], in assay [7] and in assay [10] were 0.332 µM, 9.69 µM and 1.18 µM, respectively. In addition, the TGI in assay [8], in assay [1], in assay [2], in assay [6], in assay [3] and in [4] was more than 100 µM in each case. For the same compound, the TGI was 1.54 µM in assay [5], more than 100 µM in assay [7] and more than 100 µM in assay [10].
With `CCOC(=O)C1Sc2ccccc2N=C1C` (stereo not drawn), the TGI in assay [1], in assay [2], in assay [6], in assay [3], in [4] and in assay [5] was more than 100 µM throughout. Moreover, the TGI in assay [7] is more than 100 µM.
Turning to `CCCOc1nc(N)c2cnn(C3CCCCO3)c2n1` (stereo not drawn), the TGI in assay [1], in [2], in assay [6], in assay [3], in assay [4] and in assay [5] was more than 100 µM throughout. This compound yielded a TGI in assay [7] of more than 100 µM.
